The record followed here is US20260295053A1, “COMPOUNDS FOR DEGRADATION AND INHIBITION OF KRAS (G12D) PROTEIN” (Shenzhen Ionova Life Science Co., Ltd., priority 2023, published 2026).

Where only a bound is given, the exact number is not on record here.

One assay has as its target T1, KRAS (G12D) (Homo sapiens, UniProt P01116, G12D).
T1 construct: in-cell western with KRAS G12D antibody after 24 h
Nature of the assay: KRAS (G12D) cellular degradation assay in AsPC-1 cells. It counts as cell-based. As to conditions: 24 hours, antibody fluorescence (Odyssey CLX), DC50 half-maximal degradation concentration. In short, it runs like this: (§1)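 Proliferation IC50 comes from CellTiter Glo luminescence after 6 days' exposure of AsPC-1 (3,500 cells/well) to 1:3 dilutions from […] to 1.5 nM. KRAS G12D DC50 derives from in-cell immunofluorescence normalised to β-actin after 24 h treatment of near-confluent AsPC-1 cells over the same range.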

The next assay relates to AsPC-1 cells. Nature of the assay: AsPC-1 cell proliferation assay (CellTiter Glo). Particulars: 6 days. It counts as cell-based. In short, it runs like this:
as §1

T1 sequence (P01116 1-188 isoform P01116-2 G12D): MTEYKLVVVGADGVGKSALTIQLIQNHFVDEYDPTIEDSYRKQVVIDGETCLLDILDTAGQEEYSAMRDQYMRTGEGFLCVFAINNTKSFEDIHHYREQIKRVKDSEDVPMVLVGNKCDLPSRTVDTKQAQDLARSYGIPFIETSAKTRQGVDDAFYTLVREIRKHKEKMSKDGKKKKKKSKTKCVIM

Consider `CCn1nccc1-c1ccc([C@@H](NC(=O)[C@@H]2C[C@@H](O)CN2C(=O)[C@H](C(C)C)n2cc(-c3ccc(COc4c(-c5c(C)c(F)cc6[nH]ncc56)c(C5CC5)cc5c(N6C[C@@H]7C[C@H]6CN7)nc(O[C@H]6C[C@H](OC)C6)nc45)cc3)nn2)[C@H](C)O)cc1F` [Example 195, (2S,4R)-1-((2S)-2-(4-(4-(((4-((1S,4S)-2,5-diazabicyclo[2.2.1]heptan-2-yl)-6-cyclopropyl-7-(6-fluoro-5-methyl-1H-indazol-4-yl)-2-((1r,3S)-3-methoxycyclobutoxy)quinazolin-8-yl)oxy)methyl)phenyl)-1H-1,2,3-triazol-1-yl)-3-methylbutanoyl)-N-((1R,2S)-1-(4-(1-ethyl-1H-pyrazol-5-yl)-3-fluorophenyl)-2-hydroxypropyl)-4-hydroxypyrrolidine-2-carboxamide], for which the 50% degradation concentration (DC50) on KRAS (G12D) was less than 10 nM. In the assay with AsPC-1 cells (Homo sapiens, ASPC1, 144 h), this molecule returned a half-inhibitory concentration (IC50) of less than 10 nM.
`Cc1ncsc1-c1ccc([C@@H](NC(=O)[C@@H]2C[C@@H](O)CN2C(=O)[C@H](C(C)C)n2cc(-c3ccc(COc4c(-c5c(C)c(F)cc6[nH]ncc56)c(C5CC5)cc5c(N6C[C@@H]7C[C@H]6CN7)nc(OC6CCOCC6)nc45)cc3)nn2)[C@H](C)O)cc1` [Example 72, (2S,4R)-1-((2S)-2-(4-(4-(((4-((1S,4S)-2,5-diazabicyclo[2.2.1]heptan-2-yl)-6-cyclopropyl-7-(6-fluoro-5-methyl-1H-indazol-4-yl)-2-((tetrahydro-2H-pyran-4-yl)oxy)quinazolin-8-yl)oxy)methyl)phenyl)-1H-1,2,3-triazol-1-yl)-3-methylbutanoyl)-4-hydroxy-N-((1R,2S)-2-hydroxy-1-(4-(4-methylthiazol-5-yl)phenyl)propyl)pyrrolidine-2-carboxamide] gave a DC50 at KRAS (G12D) of less than 10 nM. In the assay on AsPC-1 cells (Homo sapiens, ASPC1, 144 h), this molecule showed an IC50 of less than 10 nM.
Take `CCn1nccc1-c1ccc([C@H](CO)NC(=O)[C@@H]2C[C@@H](O)CN2C(=O)[C@H](C(C)C)n2cc(-c3ccc(COc4c(-c5c(C)c(F)cc6[nH]ncc56)c(C5CC5)cc5c(N6C[C@@H]7C[C@H]6CN7)nc(OC6CC7COCC7C6)nc45)cc3)nn2)cc1` (stereo partly drawn) [Example 104, (2S,4R)-1-((2S)-2-(4-(4-(((4-((1S,4S)-2,5-diazabicyclo[2.2.1]heptan-2-yl)-6-cyclopropyl-7-(6-fluoro-5-methyl-1H-indazol-4-yl)-2-((hexahydro-1H-cyclopenta[c]furan-5-yl)oxy)quinazolin-8-yl)oxy)methyl)phenyl)-1H-1,2,3-triazol-1-yl)-3-methylbutanoyl)-N—((R)-1-(4-(1-ethyl-1H-pyrazol-5-yl)phenyl)-2-hydroxyethyl)-4-hydroxypyrrolidine-2-carboxamide]: the half-maximal degradation concentration (DC50) at KRAS (G12D) was less than 10 nM. For the same molecule, in the assay with AsPC-1 cells (Homo sapiens, ASPC1, 144 h), the 50% inhibitory concentration (IC50) was less than 10 nM.
`CO[C@@H](C)COc1nc(N(C)[C@@H]2CCNC2)c2cc(C3CC3)c(-c3c(C)c(F)cc4[nH]ncc34)c(OCc3ccc(-c4cn([C@H](C(=O)N5C[C@H](O)C[C@H]5C(=O)N[C@H](c5ccc(-c6scnc6C)cc5)[C@H](C)O)C(C)C)nn4)cc3)c2n1` [Example 187, (2S,4R)-1-((2S)-2-(4-(4-(((6-cyclopropyl-7-(6-fluoro-5-methyl-1H-indazol-4-yl)-2-((S)-2-methoxypropoxy)-4-(methyl((R)-pyrrolidin-3-yl)amino)quinazolin-8-yl)oxy)methyl)phenyl)-1H-1,2,3-triazol-1-yl)-3-methylbutanoyl)-4-hydroxy-N-((1R,2S)-2-hydroxy-1-(4-(4-methylthiazol-5-yl)phenyl)propyl)pyrrolidine-2-carboxamide] displayed a DC50 on KRAS (G12D) of less than 10 nM. In the assay on AsPC-1 cells (Homo sapiens, ASPC1, 144 h), this molecule registered an IC50 of less than 10 nM.
The molecule `CO[C@@H](C)COc1nc(N2CCCNCC2)c2cc(C3CC3)c(-c3c(C)c(F)cc4[nH]ncc34)c(OCc3ccc(-c4cn([C@H](C(=O)N5C[C@H](O)C[C@H]5C(=O)N[C@H](c5ccc(-c6scnc6C)cc5)[C@H](C)O)C(C)C)nn4)cc3)c2n1` [Example 157, (2S,4R)-1-((2S)-2-(4-(4-(((6-cyclopropyl-4-(1,4-diazepan-1-yl)-7-(6-fluoro-5-methyl-1H-indazol-4-yl)-2-((S)-2-methoxypropoxy)quinazolin-8-yl)oxy)methyl)phenyl)-1H-1,2,3-triazol-1-yl)-3-methylbutanoyl)-4-hydroxy-N-((1R,2S)-2-hydroxy-1-(4-(4-methylthiazol-5-yl)phenyl)propyl)pyrrolidine-2-carboxamide] showed a DC50 on KRAS (G12D) of less than 10 nM. The molecule also gave a 50% inhibitory concentration (IC50) with AsPC-1 cells (Homo sapiens, ASPC1, 144 h) of less than 10 nM.
On KRAS (G12D), `CO[C@@H](C)COc1nc(N2CCNCC[C@H]2C)c2cc(C3CC3)c(-c3c(C)c(F)cc4[nH]ncc34)c(OCc3ccc(-c4cn([C@H](C(=O)N5C[C@H](O)C[C@H]5C(=O)N[C@@H](CO)c5ccc(-c6scnc6C)cc5)C(C)C)nn4)cc3)c2n1` [Example 189, (2S,4R)-1-((2S)-2-(4-(4-(((6-cyclopropyl-7-(6-fluoro-5-methyl-1H-indazol-4-yl)-2-((S)-2-methoxypropoxy)-4-((R)-7-methyl-1,4-diazepan-1-yl)quinazolin-8-yl)oxy)methyl)phenyl)-1H-1,2,3-triazol-1-yl)-3-methylbutanoyl)-4-hydroxy-N—((R)-2-hydroxy-1-(4-(4-methylthiazol-5-yl)phenyl)ethyl)pyrrolidine-2-carboxamide] registered a half-maximal degradation concentration (DC50) of less than 10 nM. This molecule registered an IC50 with AsPC-1 cells (Homo sapiens, ASPC1, 144 h) of less than 10 nM.
Take `CCn1nccc1-c1ccc([C@@H](NC(=O)[C@@H]2C[C@@H](O)CN2C(=O)[C@H](C(C)C)n2cc(-c3ccc(COc4c(-c5c(C)c(F)cc6[nH]ncc56)c(C5CC5)cc5c(N6C[C@@H]7C[C@H]6CN7)nc(OC6CCC(OC)CC6)nc45)cc3)nn2)[C@@H](C)O)cc1` (stereo partly drawn) [Example 127, (2S,4R)-1-((2S)-2-(4-(4-(((4-((1S,4S)-2,5-diazabicyclo[2.2.1]heptan-2-yl)-6-cyclopropyl-7-(6-fluoro-5-methyl-1H-indazol-4-yl)-2-((4-methoxycyclohexyl)oxy)quinazolin-8-yl)oxy)methyl)phenyl)-1H-1,2,3-triazol-1-yl)-3-methylbutanoyl)-N-((1R,2R)-1-(4-(1-ethyl-1H-pyrazol-5-yl)phenyl)-2-hydroxypropyl)-4-hydroxypyrrolidine-2-carboxamide]: the 50% degradation concentration (DC50) at KRAS (G12D) is less than 10 nM. The IC50 in the assay on AsPC-1 cells (Homo sapiens, ASPC1, 144 h) was less than 10 nM.
For `CCc1ncccc1C#C[C@H](CO)NC(=O)[C@@H]1C[C@@H](O)CN1C(=O)[C@H](C(C)C)n1cc(-c2ccc(COc3c(-c4c(C)c(F)cc5[nH]ncc45)c(C4CC4)cc4c(N5C[C@@H]6C[C@H]5CN6)nc(OC[C@H](C)OC)nc34)cc2)nn1` [Example 46, (2S,4R)-1-((2S)-2-(4-(4-(((4-((1S,4S)-2,5-diazabicyclo[2.2.1]heptan-2-yl)-6-cyclopropyl-7-(6-fluoro-5-methyl-1H-indazol-4-yl)-2-((S)-2-methoxypropoxy)quinazolin-8-yl)oxy)methyl)phenyl)-1H-1,2,3-triazol-1-yl)-3-methylbutanoyl)-N—((R)-4-(2-ethylpyridin-3-yl)-1-hydroxybut-3-yn-2-yl)-4-hydroxypyrrolidine-2-carboxamide], the DC50 at KRAS (G12D) was in the range of 10 to 100 nM. Moreover, the half-inhibitory concentration (IC50) in the assay on AsPC-1 cells (Homo sapiens, ASPC1, 144 h) is less than 10 nM.
The molecule `CO[C@@H](C)COc1nc(N(C)[C@H]2CCNC2)c2cc(C3CC3)c(-c3c(C)c(F)cc4[nH]ncc34)c(OCc3ccc(-c4cn([C@H](C(=O)N5C[C@H](O)C[C@H]5C(=O)N[C@H](c5ccc(-c6scnc6C)cc5)[C@H](C)O)C(C)C)nn4)cc3)c2n1` [Example 167, (2S,4R)-1-((2S)-2-(4-(4-(((6-cyclopropyl-7-(6-fluoro-5-methyl-1H-indazol-4-yl)-2-((S)-2-methoxypropoxy)-4-(methyl((S)-pyrrolidin-3-yl)amino)quinazolin-8-yl)oxy)methyl)phenyl)-1H-1,2,3-triazol-1-yl)-3-methylbutanoyl)-4-hydroxy-N-((1R,2S)-2-hydroxy-1-(4-(4-methylthiazol-5-yl)phenyl)propyl)pyrrolidine-2-carboxamide] yielded a DC50 on KRAS (G12D) of less than 10 nM. This molecule also yielded an IC50 in the assay on AsPC-1 cells of less than 10 nM.
Regarding `CCn1nccc1-c1ccc([C@@H](NC(=O)[C@@H]2C[C@@H](O)CN2C(=O)[C@H](C(C)C)n2cc(-c3ccc(COc4c(-c5c(C)c(F)cc6[nH]ncc56)c(C5CC5)cc5c(N6C[C@@H]7C[C@H]6CN7)nc(OC[C@H](C)OC)nc45)cc3)nn2)[C@@H](O)C(C)C)cc1` [Example 95, (2S,4R)-1-((2S)-2-(4-(4-(((4-((1S,4S)-2,5-diazabicyclo[2.2.1]heptan-2-yl)-6-cyclopropyl-7-(6-fluoro-5-methyl-1H-indazol-4-yl)-2-((S)-2-methoxypropoxy)quinazolin-8-yl)oxy)methyl)phenyl)-1H-1,2,3-triazol-1-yl)-3-methylbutanoyl)-N-((1R,2S)-1-(4-(1-ethyl-1H-pyrazol-5-yl)phenyl)-2-hydroxy-3-methylbutyl)-4-hydroxypyrrolidine-2-carboxamide], on KRAS (G12D), the DC50 is less than 10 nM. For the same molecule, the IC50 in the assay on AsPC-1 cells (Homo sapiens, ASPC1, 144 h) is less than 10 nM.
Regarding `CCn1nccc1-c1ccc([C@H](C)NC(=O)[C@@H]2C[C@@H](O)CN2C(=O)[C@H](C(C)C)n2cc(-c3ccc(COc4c(-c5c(C)c(F)cc6[nH]ncc56)c(C5CC5)cc5c(N6C[C@H]7C[C@@H]6CN7)nc(OC[C@H](C)OC)nc45)cc3)nn2)cc1` (single isomer, unassigned) [Example 4B], the DC50 on KRAS (G12D) was greater than 1000 nM. The IC50 in the assay with AsPC-1 cells is greater than 1000 nM.
`CCn1nccc1-c1ccc([C@@H](NC(=O)[C@@H]2C[C@@H](O)CN2C(=O)[C@H](C(C)C)n2cc(-c3ccc(COc4c(-c5c(C)c(F)cc6[nH]ncc56)c(C5CC5)cc5c(N6C[C@@H]7C[C@H]6CN7)nc(O[C@H]6CC[C@H](OC)C6)nc45)cc3)nn2)[C@H](C)O)cc1` [Example 151, (2S,4R)-1-((2S)-2-(4-(4-(((4-((1S,4S)-2,5-diazabicyclo[2.2.1]heptan-2-yl)-6-cyclopropyl-7-(6-fluoro-5-methyl-1H-indazol-4-yl)-2-(((1S,3S)-3-methoxycyclopentyl)oxy)quinazolin-8-yl)oxy)methyl)phenyl)-1H-1,2,3-triazol-1-yl)-3-methylbutanoyl)-N-((1R,2S)-1-(4-(1-ethyl-1H-pyrazol-5-yl)phenyl)-2-hydroxypropyl)-4-hydroxypyrrolidine-2-carboxamide] yielded a DC50 at KRAS (G12D) of less than 10 nM. Besides, the IC50 in the assay with AsPC-1 cells (Homo sapiens, ASPC1, 144 h) was less than 10 nM.

Usually DC50 stands for the midpoint of the concentration-degradation curve. In general, IC50 refers to the point on the concentration scale where inhibition reaches its midpoint. High values mean weaker potency in that assay, low ones greater potency in that assay.
